Reference: paper PMC11296140, “Cardenolides in the defensive fluid of adult large milkweed bugs have differential potency on vertebrate and invertebrate predator Na^+/K^+-ATPases” (Royal Society Open Science, 2024)

Legend:
[1] = system: zebra finch Na^+/K^+-ATPase; assay: Na+/K+-ATPase inhibition assay, zebra finch brain lysate; assay type: biochemical, Taeniopygia castanotis; details: for IC50: zebra finch enzyme, toxicity criteria of Agrawal et al.
Protocol: Taeniopygia castanotis (zebra finch) brain tissues were obtained from a breeding colony at the University of St Andrews, UK, under Home Office licence 70/8159. Individual brains were dissected and flash-frozen on dry ice before being shipped from St Andrews to the Max Planck Institute for Chemical Ecology, Jena, Germany, where they were kept at −80°C until used in the assays.
(§1) Preparations of Na^+/K^+-ATPases were obtained by homogenization of dissected brains (T. castanotis, zebra finch, and H. membranacea, giant Asian mantid), from commercially obtained enzyme (Sus scrofa domesticus, domestic pig), and expression of ATP1A1 and ATP1B1 subunits of the Na^+/K^+-ATPase of the black-headed grosbeak in insect Sf9 cells (Invitrogen).
(§2) We sliced and weighed 5 mg from three different zebra finch brains and dissected the head capsule of five female giant Asian mantids to obtain the central body with intact optic lobes. Neural tissues were transferred to a 1 ml glass grinder (Wheaton Dounce tissue grinder, 1 ml, no. 357538) and homogenized in 500 μl distilled water. Zebra finch homogenates were transferred to a 50 ml Falcon tube on ice and resuspended with 15 ml resuspension buffer (0.25 M sucrose, 2 mM ethylenediaminetetraacetic acid and 25 mM HEPES/Tris; pH 7.0). Samples were sonicated at 85 W (Fisherbrand Model 120 Sonic Dismembrator, no. 12337338) for three 45 s intervals at 0°C, followed by centrifugation for 30 min at 10 000g (Sigma 3–18K, no. 10290) at 4°C to remove debris. The supernatant was collected and further centrifuged for 60 min at 100 000g at 4°C (Optima Max-XP tabletop ultracentrifuge, no. 393315) to isolate the membrane fraction. The pelleted membranes were washed twice and resuspended in 1 ml Milli-Q water (Milli-Q direct water purification system, Merck, no. C85358) and stored at −20°C. Giant Asian mantid homogenates were frozen to −80°C and then freeze-dried overnight and then resuspended in 1800 μl distilled water. Each sample was divided into aliquots of 600 μl and sonicated twice in an ice water bath (Bandelin Sonorex, no. Z659584) for 5 min. Samples were centrifuged at 3000 r.p.m. for 5 min and used to perform functional assays.
(§3) The inhibitory effects of increasing concentrations of four cardenolides (ouabain, glucopyranosyl frugoside, frugoside and gofruside) on the black-headed grosbeak, zebra finch and giant Asian mantids were determined by photometric measurement of inorganic phosphate released from enzymatic ATP hydrolysis while subtracting the background ATPase activity following Petschenka et al. (see the electronic supplementary material, method S2e). The assessment of the inhibitory impact of glucopyranosyl calotropin was limited to the black-headed grosbeak and zebra finch species. This stemmed from the restricted availability of the compound, which only permitted testing on two predator pumps. The inhibitory effects of the five compounds for the porcine ATPase were taken from Rubiano-Buitrago et al. for comparison. All assays were run in three biological replicates, and the average of two technical replicates of each biological replicate was used for subsequent statistical analyses. Raw data are available in the data repository.
(§4) For cardenolide inhibition, we converted the calibrated absorbance values to the percentage of non-inhibited Na^+/K^+-ATPase activity based on measurements from the control wells. We fitted inhibition curves by nonlinear fitting using a four-parameter logistic curve, with the top and bottom asymptotes set to 100 and 0, respectively, using the nlsLM function of the minipack.lm library in R [47]. From this we calculated the half maximal inhibitory concentration (IC50) values for each biological replicate. […]

[2] = system: black-headed grosbeak Na^+/K^+-ATPase; assay: Na+/K+-ATPase inhibition assay, recombinant black-headed grosbeak enzyme expressed in Sf9 cells; assay type: biochemical, Pheucticus melanocephalus; details: for times less inhibitory than for pig: black-headed grosbeak vs porcine enzyme, IC50 fold difference; for IC50: black-headed grosbeak enzyme, toxicity criteria of Agrawal et al.
From the text: Pheucticus melanocephalus (black-headed grosbeak) ATPA1 and ATPB1 genes were synthesised (GeneArt; Invitrogen), codon optimised for Spodoptera frugiperda and cloned by GeneArt (Invitrogen) in pFastBac Dual plasmid with ATP1B1 under p10 promoter and ATP1A1 under PPH promoter. Final plasmids were verified by sequencing (accession number 196465).
as §1
Recombinant Na^+/K^+-ATPases were expressed after infection of Sf9 cells with P0 virus stock following the optimized baculovirus expression system described by Scholz and Suppmann. The cells were pelleted by centrifugation, resuspended and sonicated to disrupt membranes and further centrifuged to remove cell debris. Cell membranes were pelleted by ultracentrifugation of the supernatant and finally resuspended in Milli-Q water (electronic supplementary material, method S2). Prior to the Na^+/K^+-ATPase inhibition assay, the black-headed grosbeak protein was verified by SDS–PAGE/Western blotting following the methods of Mohammadi et al. (see the electronic supplementary material, figure S1) and quantified by ELISA (see the electronic supplementary material, method S2d).
as §3
For cardenolide inhibition, we converted the calibrated absorbance values to the percentage of non-inhibited Na^+/K^+-ATPase activity based on measurements from the control wells. We fitted inhibition curves by nonlinear fitting using a four-parameter logistic curve, with the top and bottom asymptotes set to 100 and 0, respectively, using the nlsLM function of the minipack.lm library in R [47]. From this we calculated the half maximal inhibitory concentration (IC50) values for each biological replicate. We compared the log10 IC50 values of individual cardenolides for each Na^+/K^+-ATPase enzyme using a linear model, testing the interaction between predator enzyme and cardenolide, and compared the inhibitory capacity of each compound pairwise using Tukey’s post hoc test. We calculated the fold differences between the IC50 values of individual cardenolides for black-headed grosbeak, zebra finch and giant Asian mantid versus the IC50 values on the porcine enzyme.

[3] = system: O. fasciatus target site Na^+/K^+-ATPase; details: cited from earlier work
[4] = target: giant Asian mantid Na^+/K^+-ATPase; assay: Na+/K+-ATPase inhibition assay, giant Asian mantid neural tissue lysate; assay type: biochemical, Hierodula membranacea; details: for IC50: giant Asian mantid enzyme, toxicity criteria of Agrawal et al.; for potency compared with the porcine enzyme (in words): giant Asian mantid vs pig, log10 IC50, Tukey post hoc
Protocol: Hierodula membranacea were obtained from M&M Wust—Mantids and More (Muhlheim am Main, Germany). Twenty-five individuals were obtained at the L4 stage and reared in individually double-ventilated boxes (19 × 19 × 19 cm). We provided them with greenbottle fly pupae as a food source, twice per week (two pupae during the nymph stages and three when they reached the adult stage). Mantids were sprayed with water every 2 days for hydration. The mantids were kept in an incubator (Snijders Scientific premium, Tilburg, The Netherlands, with an Imago 500 JUMO controller, Fulda, Germany) at 28°C and 70% humidity with an 18 L : 6 D cycle and a temperature of 18°C at night.
as §1, §2, §3
as §4, with “[47].” for “[47]. From this we calculated the half maximal inhibitory concentration (IC50) values for each biological replicate.”

[5] = zebra finch vs porcine enzyme, IC50 fold difference

Compound	times less inhibitory than for pig [1, 5]	times less inhibitory than for pig [2]	inhibition of the enzyme (in words) ([2]; putatively resistant vertebrate predator)	potency towards the bug's own target site (in words) [3]	IC50 [4]	potency compared with the porcine enzyme (in words) [4]	inhibition of the enzyme (in words) ([1]; sensitive vertebrate enzymes)	IC50 [1]	IC50 [2]	times less inhibitory than for pig ([4]; giant Asian mantid vs porcine enzyme, IC50 fold difference)	times more inhibitory than to pig [1, 5]	potency compared with the porcine enzyme (in words) ([2]; black-headed grosbeak vs pig, log10 IC50, Tukey post hoc)	times more inhibitory than to pig ([4]; giant Asian mantid vs porcine enzyme, IC50 fold difference, not significant at alpha 0.05)
gofruside	12.7 times	352.5 times	weakest inhibitor	among the weakest inhibitors	< 1 µM	did not differ in inhibitory potential							
glucopyranosyl calotropin	3.4 times	15.1 times					effective inhibitor						
C[C@H]1OC(O[C@H]2CC[C@@]3(CO)[C@H](CC[C@@H]4[C@@H]3CC[C@]3(C)[C@@H](C5=CC(=O)OC5)CC[C@]43O)C2)[C@H](O)[C@H](O)[C@@H]1O (stereo partly drawn) [frugoside]	2.6 times	6.8 times		the most inhibitory	< 1 µM	not significantly different in potency		< 1 µM	< 10 µM				
C[C@@H]1O[C@@H](O[C@H]2C[C@@H](O)[C@]3(CO)[C@H]4[C@H](O)C[C@]5(C)[C@@H](C6=CC(=O)OC6)CC[C@]5(O)[C@@H]4CC[C@]3(O)C2)[C@H](O)[C@H](O)[C@H]1O [ouabain, reference compound]	6.8 times	18.9 times								4.3 times			
glucopyranosyl frugoside								< 1 µM	< 10 µM		28.3 times	not significantly different in potency	2.3 times
